Our source for the relative viability values is the supplement of paper PMC10307832.

Common to all, as to test: relative viability (nuclei count vs DMSO), 5 days (fraction); higher = more cells survive
Compound in assay [1]: CC1CC(=O)N(C2=CN=C(N=C2N1C3CCCC3)NC4=C(C=C(C=C4)C(=O)NC5CCN(CC5)C)OC)C [NPK76-II-72-1] + O=C(c1cc(Cc2n[nH]c(=O)c3ccccc23)ccc1F)N1CCN(C(=O)C2CC2)CC1 [Olaparib] (partner 8 µM)
The method in brief:
(§1)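 Values are medians from duplicate plates. Each reflects relative viability, defined as the nuclei count of treated wells over that of vehicle wells. Lung cancer cell lines in 1536-well plates were pin-tool dosed one day after seeding with one drug alone or with a fixed anchor-drug dose plus five library-drug doses (not always all listed) in √10 steps, then fixed, stained and imaged at 4× after 5 days.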

Compound in assay [2]: CC[C@@H]1C(=O)N(C)c2cnc(Nc3ccc(C(=O)NC4CCN(C)CC4)cc3OC)nc2N1C1CCCC1 [BI-2536] + O=C(c1cc(Cc2n[nH]c(=O)c3ccccc23)ccc1F)N1CCN(C(=O)C2CC2)CC1 [Olaparib] (partner 8 µM)
The method in brief:
as §1

Compound in assay [3]: CC1CC(=O)N(C2=CN=C(N=C2N1C3CCCC3)NC4=C(C=C(C=C4)C(=O)NC5CCN(CC5)C)OC)C [NPK76-II-72-1] + CC1(C)CCC(c2ccc(Cl)cc2)=C(CN2CCN(c3ccc(C(=O)NS(=O)(=O)c4ccc(N[C@H](CCN5CCOCC5)CSc5ccccc5)c(S(=O)(=O)C(F)(F)F)c4)cc3)CC2)C1 [Navitoclax] (partner 0.5 µM)
The method in brief:
as §1

Compound in assay [4]: CC[C@@H]1C(=O)N(C)c2cnc(Nc3ccc(C(=O)NC4CCN(C)CC4)cc3OC)nc2N1C1CCCC1 [BI-2536] + C[C@@H](Oc1cc(-c2cnn(C3CCNCC3)c2)cnc1N)c1c(Cl)ccc(F)c1Cl [Crizotinib] (partner 1 µM)
The method in brief: as §1

In the case of UMC-11, the relative viability was determined as 0.381 in assay [1] (first compound 0.01 µM); 0.339 in assay [1] (first compound 0.03162 µM); 0.386 in assay [1] (first compound 0.1 µM); 0.358 in assay [1] (first compound 0.3162 µM); 0.403 in assay [1] (first compound 1 µM); 0.389 in assay [2] (first compound 0.01 µM). Further, the relative viability in assay [2] (first compound 0.03162 µM) amounted to 0.414; in assay [2] (first compound 0.1 µM), 0.251; in assay [2] (first compound 0.3162 µM) it was 0.218; in assay [2] (first compound 1 µM), 0.209; in assay [3] (first compound 0.01 µM) it was 0.313; in assay [3] (first compound 0.03162 µM) it was 0.276. Besides, the relative viability was 0.302 in assay [3] (first compound 0.1 µM); 0.305 in assay [3] (first compound 0.3162 µM); 0.357 in assay [3] (first compound 1 µM); 0.48 in assay [4] (first compound 0.01 µM); 0.237 in assay [4] (first compound 0.03162 µM); 0.148 in assay [4] (first compound 0.1 µM). Further, the relative viability came to 0.133 in assay [4] (first compound 0.3162 µM) and 0.1 in assay [4] (first compound 1 µM).
